Reference: article PMC4327905 (Chemico-biological interactions, 2015)
Where a name gives a salt, the structure may show the parent alone.

Key:
transthyretin [1] = molecular target: T1, transthyretin (Homo sapiens, UniProt P02766); experiment: acid-induced amyloid fibril formation, turbidity at […] nm, […] compound and […] TTR; format: biochemical
transthyretin [2] = molecular target: T1, transthyretin; experiment: ANS fluorescence displacement; format: binding

Oc1cccc(-c2ccc(Cl)cc2)c1 [3′-OHPCB 3, 4′-chloro-biphenyl-3-ol]
Fibril Formation (%) (transthyretin [1]): 52.3 % fibril formation

Oc1ccc(-c2cccc(Cl)c2)cc1Cl [4-OHPCB 11, 3,3′-dichloro-biphenyl-4-ol]
Fibril Formation (%) (transthyretin [1]): 7.5 % fibril formation

O=S(=O)(O)Oc1ccc(-c2ccc(Cl)cc2)c(Cl)c1 [4-PCB 8 sulfate, 2,4′-dichloro-4-sulfooxy-biphenyl]
Kd (transthyretin [2]): 4.3 nM

O=S(=O)(O)Oc1ccc(-c2ccc(Cl)c(Cl)c2)c(Cl)c1 [4-PCB 33 sulfate, 2,3′,4′-trichloro-4-sulfooxy-biphenyl]
Fibril Formation (%) (transthyretin [1]): 12.7 % fibril formation

O=S(=O)(O)Oc1cccc(-c2ccc(Cl)cc2)c1 [3′-PCB 3 sulfate, 4-chloro-3′-sulfooxy-biphenyl]
Fibril Formation (%) (transthyretin [1]): 30.7 % fibril formation

O=S(=O)(O)Oc1ccc(-c2cc(Cl)ccc2Cl)cc1Cl [4′-PCB 26 sulfate, 2,3′,5-trichloro-4′-sulfooxy-biphenyl]
Fibril Formation (%) (transthyretin [1]): 10.5 % fibril formation

O=S(=O)(O)Oc1ccc(-c2cccc(Cl)c2)cc1Cl [4-PCB 11 sulfate, 3,3′-dichloro-4-sulfooxy-biphenyl]
Fibril Formation (%) (transthyretin [1]): 8.3 % fibril formation

O=S(=O)(O)Oc1ccc(-c2ccc(Cl)cc2)cc1 [4′-PCB 3 sulfate, 4-chloro-4′-sulfooxy-biphenyl]
Fibril Formation (%) (transthyretin [1]): 37.2 % fibril formation

Oc1c(Cl)cc(-c2ccc(Cl)c(Cl)c2)cc1Cl [4′-OHPCB 79, 3,3′,4′,5-tetrachloro-biphenyl-4-ol, reference compound]
Fibril Formation (%) (transthyretin [1]): 32.2 % fibril formation

O=C(O)c1ccccc1Nc1cccc(C(F)(F)F)c1 [Flufenamic acid, reference compound]
Fibril Formation (%) (transthyretin [1]): 22.3 % fibril formation
